Consider twelve compounds from PubChem BioAssay (NCI).

Structures are written as SMILES.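 Five compound concentrations were applied to cells in 96-well plates for 48 hours; endpoints were derived by simple linear interpolation of the resulting dose-response curve. The concentration for 50% growth inhibition is given as GI50. The concentration for full growth arrest is given as TGI.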 Where only a bound is given, the exact number is not on record here.

Test systems include ACHN renal; HL-60(TB) leukemia; HOP-62 NSCLC; K-562 leukemia; MALME-3M melanoma; OVCAR-3 ovarian; SF-268 CNS; SN12C renal; SNB-75 CNS; IGROV1 ovarian.
Common to all, as to experiment: NCI anticancer screen, dose series, 48 h

For `CC(C)CCC[C@@H](C)C1CCC2[C@@H]3CC=C4C[C@@H](OC(=O)CCC(=O)NCC[N+](C)(C)CCCS(=O)(=O)[O-])CC[C@]4(C)C3CC[C@@]21C` (some centres undefined), the TGI in the experiment on ACHN renal was 53.9 µM; with HL-60(TB) leukemia it was 36.6 µM; in the experiment on HOP-62 NSCLC, 33.9 µM; in the experiment with K-562 leukemia, 37.6 µM; with MALME-3M melanoma, 43.7 µM; in the experiment with OVCAR-3 ovarian, 34.5 µM. Besides, the TGI amounted to 39.7 µM in the experiment on SF-268 CNS, 38.2 µM with SN12C renal and 44.9 µM with SNB-75 CNS.
With `C=CC[n+]1c(/C=C2\Sc3ccccc3N2C)sc(-c2ccccc2)c1-c1ccccc1`, the GI50 was 1700 nM in the experiment on ACHN renal; 241 nM in the experiment on HL-60(TB) leukemia; 302 nM in the experiment on HOP-62 NSCLC; 0.45 µM with IGROV1 ovarian; 344 nM with K-562 leukemia; 253 nM in the experiment with MALME-3M melanoma. The GI50 in the experiment with SF-268 CNS was 405 nM; in the experiment on SN12C renal, 298 nM; with SNB-75 CNS, 298 nM. For the same compound, the TGI in the experiment on ACHN renal was found to be 10.2 µM; in the experiment on HL-60(TB) leukemia, 0.665 µM; in the experiment on HOP-62 NSCLC, 4.75 µM; in the experiment on IGROV1 ovarian it was 13.7 µM; in the experiment with K-562 leukemia it was 10 µM; in the experiment with MALME-3M melanoma, 0.672 µM. For the same compound, the TGI with SF-268 CNS came to 15.6 µM; with SN12C renal, 1.47 µM.
In the case of `COc1cc2c3c(c1OC)C1(C=CC(=O)C=C1)CC3N(C(=O)OC(C)(C)C(Cl)(Cl)Cl)CC2` (centres undefined), the TGI in the experiment on HL-60(TB) leukemia is 8.26 µM; in the experiment on HOP-62 NSCLC it was 31.9 µM; in the experiment with IGROV1 ovarian it was 41.9 µM; in the experiment on K-562 leukemia it was 50.2 µM; in the experiment with MALME-3M melanoma, 27.2 µM; in the experiment with OVCAR-3 ovarian, 20.7 µM. Besides, the TGI came to 31.8 µM in the experiment on SF-268 CNS, 26.6 µM in the experiment with SN12C renal and 34.5 µM in the experiment on SNB-75 CNS.
Regarding `COc1ccc2c(c1)C(CCN)C(=O)N2` (centres undefined), the TGI in the experiment on ACHN renal, in the experiment on HL-60(TB) leukemia, in the experiment with HOP-62 NSCLC, with IGROV1 ovarian, in the experiment with K-562 leukemia and in the experiment on MALME-3M melanoma was > 100 µM each time. For the same compound, the TGI in the experiment with OVCAR-3 ovarian, in the experiment with SF-268 CNS and in the experiment on SNB-75 CNS was > 100 µM throughout.
Take `O=C(CC1Sc2ccccc2NC1=O)Nc1ccc([N+](=O)[O-])cc1[N+](=O)[O-]` (centres undefined): the TGI in the experiment on ACHN renal was 30.3 µM; in the experiment with HL-60(TB) leukemia, 41.9 µM; with HOP-62 NSCLC it was > 100 µM; with IGROV1 ovarian, 39.1 µM; in the experiment on MALME-3M melanoma, 40.6 µM; with OVCAR-3 ovarian it was 31.5 µM. The values for the TGI in the experiment on SF-268 CNS, with SN12C renal and in the experiment on SNB-75 CNS were 30.9 µM, 29.7 µM and 38.7 µM, respectively.
As to `NNC(=S)N/N=C(\c1nc2ccc(Cl)cc2[nH]c1=O)C(O)c1ccc(Cl)cc1Cl` (centres undefined), the TGI in the experiment with ACHN renal, in the experiment with HL-60(TB) leukemia, with HOP-62 NSCLC, in the experiment with IGROV1 ovarian, with K-562 leukemia and in the experiment on MALME-3M melanoma was > 100 µM each time. For the same compound, the TGI with SF-268 CNS, in the experiment on SN12C renal and in the experiment on SNB-75 CNS was > 100 µM each time.
Consider `Cc1cc(C)cc(NC(=O)CCC(=O)C2CCC/C2=N\NC(=O)C(=O)NN)c1` (centres undefined), for which the TGI in the experiment on ACHN renal, in the experiment on HL-60(TB) leukemia, in the experiment on IGROV1 ovarian, in the experiment on K-562 leukemia, with MALME-3M melanoma and in the experiment with OVCAR-3 ovarian was > 100 µM throughout. The TGI in the experiment on SF-268 CNS, in the experiment with SN12C renal and with SNB-75 CNS was > 100 µM throughout.
In the case of `Clc1cc(Cl)c2n[se]nc2c1`, the TGI with ACHN renal, in the experiment on HL-60(TB) leukemia, in the experiment on HOP-62 NSCLC, in the experiment on IGROV1 ovarian, with K-562 leukemia and in the experiment on MALME-3M melanoma was > 100 µM throughout. Besides, the TGI in the experiment with SF-268 CNS, in the experiment with SN12C renal and with SNB-75 CNS was > 100 µM each time.
`CCSc1sc(-c2ccc(C)cc2)nc1[P+](c1ccccc1)(c1ccccc1)c1ccccc1`: the GI50 is 285 nM in the experiment on ACHN renal; 206 nM in the experiment on HL-60(TB) leukemia; 316 nM in the experiment on HOP-62 NSCLC; 195 nM with K-562 leukemia; 288 nM in the experiment with MALME-3M melanoma; 0.3 µM in the experiment on OVCAR-3 ovarian. Further, the GI50 in the experiment with SF-268 CNS is 328 nM; in the experiment on SN12C renal, 294 nM; with SNB-75 CNS it was 192 nM. The TGI came to 1.01 µM with ACHN renal; 0.542 µM in the experiment on HL-60(TB) leukemia; 1.38 µM in the experiment on HOP-62 NSCLC; 1.44 µM in the experiment with K-562 leukemia; 1.06 µM in the experiment on MALME-3M melanoma; 1.18 µM in the experiment with OVCAR-3 ovarian. The TGI with SF-268 CNS came out at 1.43 µM; with SN12C renal, 1.11 µM; in the experiment on SNB-75 CNS, 0.802 µM.
As to `COc1ccc(/C=N\N2C(=O)Cc3ccccc32)cc1`, the TGI in the experiment with ACHN renal, with HL-60(TB) leukemia, with HOP-62 NSCLC, in the experiment on IGROV1 ovarian, with K-562 leukemia and in the experiment with MALME-3M melanoma was > 100 µM in each case. For the same compound, the TGI in the experiment on OVCAR-3 ovarian is > 100 µM; with SF-268 CNS, > 100 µM; in the experiment on SNB-75 CNS it was 62 µM.
With `COC(=O)c1ccc2n[se]nc2c1`, the TGI in the experiment with ACHN renal, in the experiment with HL-60(TB) leukemia, in the experiment on HOP-62 NSCLC, with IGROV1 ovarian, in the experiment with K-562 leukemia and in the experiment on MALME-3M melanoma was > 100 µM throughout. The TGI in the experiment on SF-268 CNS, in the experiment with SN12C renal and with SNB-75 CNS was > 100 µM each time.
Consider `COc1ccc(-c2ccc(/C=N/n3cnn(CN4CCN(C)CC4)c3=S)o2)c([N+](=O)[O-])c1`, for which the GI50 in the experiment on ACHN renal is 30100 nM; in the experiment on HL-60(TB) leukemia, 17700 nM; in the experiment with HOP-62 NSCLC, 34100 nM; in the experiment on IGROV1 ovarian, 54.7 µM; with K-562 leukemia it was 33600 nM; in the experiment with MALME-3M melanoma, 36900 nM. Further, the GI50 in the experiment with OVCAR-3 ovarian was 26.7 µM; in the experiment with SF-268 CNS, 23600 nM; with SNB-75 CNS, 68900 nM. Further, the TGI was 70.5 µM in the experiment with ACHN renal; 49.9 µM in the experiment with HL-60(TB) leukemia; > 100 µM in the experiment with HOP-62 NSCLC; > 100 µM with IGROV1 ovarian; > 100 µM with K-562 leukemia; > 100 µM in the experiment with MALME-3M melanoma. For the same compound, the TGI was 66.9 µM in the experiment on OVCAR-3 ovarian, 69.5 µM with SF-268 CNS and > 100 µM with SNB-75 CNS.
